Read-outs that look alike come from different tables or passages of the source.
System: OF1 mice
Assay: Maximal electroshock test (MES Test)
Format: in vivo
Details: for responders at 50 mg/kg / responders at 25 mg/kg / responders at 15 mg/kg: Mus musculus, read-out: %-Protection; for responders at 25 mg/kg: p.o. (footnote b); for responders at 15 mg/kg: p.o. (footnote c)
Method: Compounds of the invention were tested in OF1 mice using the maximal electroshock test (MES Test) described in detail by Schmutz et al., Naunyn-Schmiedeberg's Arch Pharmacol 1990, 342, 61-66. Briefly, generalized tonic-clonic convulsions of the hind extremities were induced by passing electrical current through temporal electrodes (50 Hz, 18 mA, 0.2s). […] 30 mg/kg carbamazepine was used as a positive control; mice were classified as protected by a compound If the duration of the seizure lasted only 3 second or less. Five mice were used for each treatment condition and the percentage of protected mice was used as readout (i.e. a compound could give 0%, 20%, 40%, 60%, 80% or 100% protection). Usually, compounds of the invention or their parents were given at a dose of 50 mg/kg, p.o., 1 hour prior to induction of convulsions (i.e. “pre-treatment time −1 h”).
ED50 values (ED: effective dose) were calculated using GraphPad Prism, v4.02. after shock administration, mouse blood was collected for determination of compounds' blood exposure.

[1] = dose of up to 50 mg/kg, p.o., 1 hour prior to induction of convulsions
[2] = po, 50 mg/kg, p.o., pre-treatment time −1 h

CCn1nccc1-c1cc2c(=O)n(N(C(=O)CCSC)S(C)(=O)=O)c(=O)[nH]c2cc1C(F)(F)F [N-[6-(2-Ethyl-2H-pyrazol-3-yl)-2,4-dioxo-7-trifluoromethyl-1,4-dihydro-2H-quinazolin-3-yl]-N-(3-methylsulfanyl-propionyl)-methanesulfonamide]
responders at 50 mg/kg [1]: 0%

CCCC(=O)N(n1c(=O)[nH]c2cc(C(F)(F)F)c(C(CC)OC)cc2c1=O)S(C)(=O)=O (stereo not shown) [Example 11.07, N-Butyryl-N-[6-(1-methoxy-propyl)-2,4-dioxo-7-trifluoromethyl-1,4-dihydro-2H-quinazolin-3-yl]-methanesulfonamide]
responders at 50 mg/kg [2]: 100%

CCc1cc2[nH]c(=O)n(N(C(=O)C(C)C)S(C)(=O)=O)c(=O)c2cc1-c1ccnn1C [N-[7-Ethyl-6-(2-methyl-2H-pyrazol-3-yl)-2,4-dioxo-1,4-dihydro-2H-quinazolin-3-yl]-N-isobutyryl-methanesulfonamide]
responders at 50 mg/kg [1]: 0%

CCCCOC(=O)N(n1c(=O)[nH]c2cc(CC)c(-c3ccnn3C)cc2c1=O)S(C)(=O)=O [Example 2.09, Methanesulfonyl-[7-ethyl-6-(2-methyl-2H-pyrazol-3-yl)-2,4-dioxo-1,4-dihydro-2H-quinazolin-3-yl]-carbamic acid butyl ester]
responders at 50 mg/kg [2]: 40%

CC(=O)N(n1c(=O)[nH]c2cc(C(F)F)c(-c3ccnn3C(C)C)cc2c1=O)S(C)(=O)=O [Example 6.01, N-Acetyl-N-[7-difluoromethyl-6-(2-isopropyl-2H-pyrazol-3-yl)-2,4-dioxo-1,4-dihydro-2H-quinazolin-3-yl]-methanesulfonamide]
responders at 50 mg/kg [2]: 40%
responders at 25 mg/kg (po, pre-treatment time −1 h): 20%

CCC(OC)c1cc2c(=O)n(N(C(=O)C(C)C)S(C)(=O)=O)c(=O)[nH]c2cc1C(F)(F)F (stereo not shown) [Example 11.06, N-Isobutyryl-N-[6-(1-methoxy-propyl)-2,4-dioxo-7-trifluoromethyl-1,4-dihydro-2H-quinazolin-3-yl]-methanesulfonamide]
responders at 50 mg/kg [2]: 100%

CCc1cc2[nH]c(=O)n(N(C(C)=O)S(C)(=O)=O)c(=O)c2cc1-c1ccnn1CC [N-Acetyl-N-[7-ethyl-6-(2-ethyl-2H-pyrazol-3-yl)-2,4-dioxo-1,4-dihydro-2H-quinazolin-3-yl]-methanesulfonamide]
responders at 50 mg/kg [1]: 0%

CCC(OC)c1cc2c(=O)n(N(C(=O)OC)S(C)(=O)=O)c(=O)[nH]c2cc1C(F)(F)F (stereo not shown) [Example 11.09, Methanesulfonyl-[6-(1-methoxy-propyl)-2,4-dioxo-7-trifluoromethyl-1,4-dihydro-2H-quinazolin-3-yl]-carbamic acid methyl ester]
responders at 50 mg/kg [2]: 80%

CC(C)OC(=O)N(n1c(=O)[nH]c2cc(C(F)(F)F)c([C@H]3CCCO3)cc2c1=O)S(C)(=O)=O [Methanesulfonyl-[(R)-2,4-Dioxo-6-tetrahydro-furan-2-yl-7-trifluoromethyl-1,4-dihydro-2H-quinazolin-3-yl]carbamic acid isopropyl ester]
responders at 50 mg/kg [1]: 0%

COCCOC(=O)N(n1c(=O)[nH]c2cc(C(C)C)c(-c3ccnn3C)cc2c1=O)S(C)(=O)=O [Example 3.02, [7-Isopropyl-6-(2-methyl-2H-pyrazol-3-yl)-2,4-dioxo-1,4-dihydro-2H-quinazolin-3-yl]-methanesulfonyl-carbamic acid 2-methoxy-ethyl ester]
responders at 15 mg/kg (po, pre-treatment time −1 h): 100%

CC(C)C(=O)N(n1c(=O)[nH]c2cc(C(C)C)c(-c3ccnn3C)cc2c1=O)S(C)(=O)=O [Example 3.16, N-Isobutyryl-N-[7-isopropyl-6-(2-methyl-2H-pyrazol-3-yl)-2,4-dioxo-1,4-dihydro-2H-quinazolin-3-yl]-methanesulfonamide]
responders at 50 mg/kg [2]: 60%

CCCCC(=O)N(n1c(=O)[nH]c2cc(C(F)F)c(-c3ccnn3CC)cc2c1=O)S(C)(=O)=O [N-[7-Difluoromethyl-6-(2-ethyl-2H-pyrazol-3-yl)-2,4-dioxo-1,4-dihydro-2H-quinazolin-3-yl]-N-pentanoyl-methanesulfonamide]
responders at 50 mg/kg [1]: 0%

COC(=O)N(n1c(=O)[nH]c2cc(C(F)(F)F)c(-n3cccc3)cc2c1=O)S(C)(=O)=O [Example 8.04, (2,4-Dioxo-6-pyrrol-1-yl-7-trifluoromethyl-1,4-dihydro-2H-quinazolin-3-yl)-methanesulfonyl-carbamic acid methyl ester]
responders at 50 mg/kg [2]: 20%

CCOC(=O)CC(=O)N(n1c(=O)[nH]c2cc(C(C)C)c(-c3ccnn3C)cc2c1=O)S(C)(=O)=O [Example 3.07, 3-{[7-Isopropyl-6-(2-methyl-2H-pyrazol-3-yl)-2,4-dioxo-1,4-dihydro-2H-quinazolin-3-yl]-methanesulfonyl-amino}-3-oxo-propionic acid ethyl ester]
responders at 15 mg/kg (po, pre-treatment time −1 h): 80%

CSCCC(=O)N(n1c(=O)[nH]c2cc(C(F)(F)F)c(-c3ccnn3C(C)C)cc2c1=O)S(C)(=O)=O [Example 5.13, N-[6-(2-Isopropyl-2H-pyrazol-3-yl)-2,4-dioxo-7-trifluoromethyl-1,4-dihydro-2H-quinazolin-3-yl]-N-(3-methylsulfanyl-propionyl)-methanesulfonamide]
responders at 50 mg/kg [2]: 40%

CCCCCC(=O)N(n1c(=O)[nH]c2cc(C(F)(F)F)c(C(CC)OC)cc2c1=O)S(C)(=O)=O (stereo not shown) [Example 11.05, N-Hexanoyl-N-[6-(1-Methoxy-propyl)-2,4-dioxo-7-trifluoromethyl-1,4-dihydro-2H-quinazolin-3-yl]-methanesulfonamide]
responders at 50 mg/kg [2]: 80%

CCn1nccc1-c1cc2c(=O)n(N(C(C)=O)S(C)(=O)=O)c(=O)[nH]c2cc1C(F)(F)F [N-Acetyl-N-[6-(2-ethyl-2H-pyrazol-3-yl)-2,4-dioxo-7-trifluoromethyl-1,4-dihydro-2H-quinazolin-3-yl]-methanesulfonamide]
responders at 50 mg/kg [1]: 0%

CCn1nccc1-c1cc2c(=O)n(N(C(=O)COC(C)=O)S(C)(=O)=O)c(=O)[nH]c2cc1C(F)(F)F [Acetic acid 2-{[6-(2-ethyl-2H-pyrazol-3-yl)-2,4-dioxo-7-trifluoromethyl-1,4-dihydro-2H-quinazolin-3-yl]-methanesulfonyl-amino}-2-oxo-ethyl ester]
responders at 50 mg/kg [1]: 0%

CC(=O)OCC(=O)N(n1c(=O)[nH]c2cc(C(F)(F)F)c(-c3ccnn3C(C)C)cc2c1=O)S(C)(=O)=O [Acetic acid 2-{[6-(2-isopropyl-2H-pyrazol-3-yl)-2,4-dioxo-7-trifluoromethyl-1,4-dihydro-2H-quinazolin-3-yl]-methanesulfonyl-amino}-2-oxo-ethyl ester]
responders at 50 mg/kg [1]: 0%

CCCOC(=O)N(n1c(=O)[nH]c2cc(C(F)F)c(-c3ccnn3C(C)C)cc2c1=O)S(C)(=O)=O [Example 6.04, [7-Difluoromethyl-6-(2-isopropyl-2H-pyrazol-3-yl)-2,4-dioxo-1,4-dihydro-2H-quinazolin-3-yl]-methanesulfonyl-carbamic acid propyl ester]
responders at 50 mg/kg [2]: 20%
responders at 25 mg/kg (po, pre-treatment time −1 h): 0%

CC(C)c1cc2[nH]c(=O)n(N(C(=O)CCCN3CCOCC3)S(C)(=O)=O)c(=O)c2cc1-c1ccnn1C [Example 3.37, N-[7-Isopropyl-6-(2-methyl-2H-pyrazol-3-yl)-2,4-dioxo-1,4-dihydro-2H-quinazolin-3-yl]-N-(4-morpholin-4-yl-butyryl)-methanesulfonamide]
responders at 50 mg/kg [2]: 100%

CCn1nccc1-c1cc2c(=O)n(N(C(=O)COC(C)=O)S(C)(=O)=O)c(=O)[nH]c2cc1C(F)F [Example 14.01, Acetic acid 2-{[7-difluoromethyl-6-(2-ethyl-2H-pyrazol-3-yl)-2,4-dioxo-1,4-dihydro-2H-quinazolin-3-yl]-methanesulfonyl-amino}-2-oxo-ethyl ester]
responders at 50 mg/kg [2]: 20%

CCCCC(=O)N(n1c(=O)[nH]c2cc(C(F)(F)F)c(-n3cnnc3)cc2c1=O)S(C)(=O)=O [Example 9.03, N-(2,4-Dioxo-6-[1,2,4]triazol-4-yl-7-trifluoromethyl-1,4-dihydro-2H-quinazolin-3-yl)-N-pentanoyl-methanesulfonamide]
responders at 50 mg/kg [2]: 20%

CC(=O)N(n1c(=O)[nH]c2cc(C(C)C)c(-c3ccnn3C)cc2c1=O)S(C)(=O)=O [Example 3.01, N-Acetyl-N-[7-isopropyl-6-(2-methyl-2H-pyrazol-3-yl)-2,4-dioxo-1,4-dihydro-2H-quinazolin-3-yl]-methanesulfonamide]
responders at 50 mg/kg (po, 50 mg/kg, p.o., pre-treatment time −0.5 h (footnote d)): 100%
responders at 50 mg/kg (po, Table 5, 50 mg/kg, p.o., pre-treatment time −0.25 h): 40%
responders at 50 mg/kg (po, Table 5, 50 mg/kg, p.o., pre-treatment time −1 h): 100%
%-Protection (Table 5, 50 mg/kg, p.o., pre-treatment time −0.5 h): 100%

CCC(=O)N(n1c(=O)[nH]c2cc(CC)c(-c3ccnn3CC)cc2c1=O)S(C)(=O)=O [Example 13.03, N-[7-Ethyl-6-(2-ethyl-2H-pyrazol-3-yl)-2,4-dioxo-1,4-dihydro-2H-quinazolin-3-yl]-N-propionyl-methanesulfonamide]
responders at 50 mg/kg [2]: 20%

CCCCCCOC(=O)N(n1c(=O)[nH]c2cc(C(F)(F)F)c(C(CC)OC)cc2c1=O)S(C)(=O)=O (stereo not shown) [Example 11.13, Methanesulfonyl-[6-(1-methoxy-propyl)-2,4-dioxo-7-trifluoromethyl-1,4-dihydro-2H-quinazolin-3-yl]-carbamic acid hexyl ester]
responders at 50 mg/kg [2]: 60%

From patent US20130053381A1, “2,4-DIOXO-1,4-DIHYDRO-2H-QUINAZOLIN-3-YL-SULFONAMIDE DERIVATIVES” (NOVARTIS AG, priority 2010, published 2013)
